Our source for the IC50, NI and NS values is ChEMBL document CHEMBL1145805, “Utilization of a beta-aminophosphotyrosyl mimetic in the design and synthesis of macrocyclic Grb2 SH2 domain-binding peptides” (J Med Chem, 2003).

Test [1] addresses T1, Growth factor receptor-bound protein 2 (Homo sapiens, UniProt P62993). In words: Inhibition of Growth factor receptor bound protein 2 SH2 domain in extracellular binding assay.
Target sequence in this assay (P62993 whole entry, the tested form may be a part): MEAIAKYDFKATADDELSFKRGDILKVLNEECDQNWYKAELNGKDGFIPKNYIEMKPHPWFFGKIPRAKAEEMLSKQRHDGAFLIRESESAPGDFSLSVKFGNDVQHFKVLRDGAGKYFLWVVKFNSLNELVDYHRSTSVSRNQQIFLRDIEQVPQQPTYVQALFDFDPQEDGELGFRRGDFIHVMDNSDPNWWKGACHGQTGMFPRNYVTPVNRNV
For test [2], the system named is MDA-MB-453. In words: Inhibition of MDA-MB-453 breast cancer cell proliferation (No inhibition). The conditions noted are these: Homo sapiens. The format is functional, cell-based.
In test [3] the target is T1, Growth factor receptor-bound protein 2. Nature of the test: Inhibition of growth factor receptor-bound protein 2 SH2 domain binding to erbB-2 in cell-based assay (Not significant).
Target sequence in this assay (P62993 whole entry, looked up, the tested form may be a part): as the sequence (P62993 whole entry, the tested form may be a part) above

Calls of active or inactive are those of the source. The calls are words filed in the database; no cut-off is given here. Bounds are passed on as bounds.

Take `NC(=O)C[C@@H]1NC(=O)C2(CCCCC2)NC(=O)C[C@@H](c2ccc(CP(=O)(O)O)cc2)NC(=O)CCCNC1=O`: the 50% inhibitory concentration (IC50) (as a rule, the midpoint of a concentration-inhibition curve) in test [1] came to 47.9 µM. Regarding `NC(=O)C[C@@H]1NC(=O)C2(CCCCC2)NC(=O)C[C@@H](c2ccc(CP(=O)(O)O)cc2)NC(=O)CNC1=O`, the half-inhibitory concentration (IC50) in test [1] was > 600 µM. On to `NC(=O)C[C@@H]1NC(=O)C2(CCCCC2)NC(=O)C[C@@H](c2ccc(CP(=O)(O)O)cc2)NC(=O)CCNC1=O`, for which the IC50 in test [1] is > 600 µM. With `NC(=O)C[C@@H]1NC(=O)C2(CCCCC2)NC(=O)C[C@@H](c2ccc(CP(=O)(O)O)cc2)/C=C/C[C@@H](Cc2cccc3ccccc23)CNC1=O`, in test [2], the NI entry is “inactive”. In addition, in test [1], the half-maximal inhibitory concentration (IC50) is 0.026 µM. Also, the NS result in test [3] was “inactive”. Regarding `NC(=O)C[C@@H]1NC(=O)C2(CCCCC2)NC(=O)C[C@@H](c2ccc(CP(=O)(O)O)cc2)NC(=O)C[C@@H](Cc2cccc3ccccc23)CNC1=O`, the NI result in test [2] is “inactive”. This compound had a half-maximal inhibitory concentration (IC50) in test [1] of 7.9 µM. In addition, the NS result in test [3] was “inactive”. Compound `NC(=O)C[C@H](NC(=O)C1(NC(=O)CCc2ccc(CP(=O)(O)O)cc2)CCCCC1)C(N)=O` gave an IC50 in test [1] of 52.5 µM. This counts as double-digit micromolar.
